# From patent publication US7884199B2, “HCV NS3-NS4 protease resistance mutants” (priority 2003, dated 2011)
# Like-named read-outs stand apart in the source and are kept apart here.
# Tests used:
# [1] = biological target: T1, A156V mutant HCV NS3 serine protease domain (Hepatitis C virus genotype 1b, UniProt Q9WMX2, A1182V); assay: FRET enzyme assay, Ki; format: biochemical
# T1 construct: A DNA fragment encoding residues Ala^1-Ser^181 of the HCV NS3 protease (GenBank CAB46913); hexa-histidine (C); made in house; host or cells: E. coli
# [2] = system: wild type HCV replicon cells (high efficiency Con1 replicon); assay: HCV replicon cell assay, 48-hour; format: cell-based, Hepatitis C virus; conditions: 48-hour assay, HCV RNA level, read-out: Replicon IC50
# Source text: (§1) During the course of generating of the HCV sub-genomic replicon stable cell lines, several different patterns of adaptive mutations were identified. One pattern has three substitutions in the HCV nonstructural proteins, which were introduced into the original pBR322-HCV-Neo plasmid by site-directed mutagenesis to generate the second-generation sub-genomic replicon plasmid, pBR322-HCV-Neo-mADE. When the T7 run-offRNA transcripts from the Sca I-linearized pBR322-HCV-Neo-mADE plasmid were electroporated into Huh7 cells, stable replicon cell colonies were formed at a much higher efficiency than the original Con1 replicon RNA. The resistance mutations identified in this study were introduced into the pBR322-HCV-Neo-mADE replicon plasmid by site-directed mutagenesis. Stable replicon cell lines were generated using the T7 transcripts derived from either wild type pBR322-HCV-Neo-mADE or the ones with the resistance mutations.
# (§2) Cells containing hepatitis C virus (HCV) replicon were maintained in DMEM containing 10% fetal bovine serum (FBS), 0.25 mg per ml of G418, with appropriate supplements (media A).
# On day 1, replicon cell monolayer was treated with a trypsin:EDTA mixture, removed, and then media A was diluted into a final concentration of 100,000 cells per ml with. […]
# A Taqman real-time RT-PCR quantification assay was set up with two sets of specific primers and probe. […] Total RNA extractants from treated HCV replicon cells was added to the PCR reactions for quantification of both HCV and BVDV RNA in the same PCR well. […] The level of HCV RNA in each well was calculated according to a standard curve run in the same PCR plate. The percentage of inhibition or decrease of HCV RNA level due to compound treatment was calculated using the DMSO or no compound control as 0% of inhibition. The cytotoxicity of the compounds was measured using a mitochondrial enzyme-based cell viability assay, CellTiter 96 AQueous One Solution Cell Proliferation Assay (Promega). […]
# [3] = system: A156T HCV replicon cells; assay: HCV replicon cell assay, 48-hour; format: cell-based, Hepatitis C virus
# Source text: as §1, §2
# (§3) On day 1, replicon cell monolayer was treated with a trypsin:EDTA mixture, removed, and then media A was diluted into a final concentration of 100,000 cells per ml with. 10,000 cells in 100 ul were plated into each well of a 96-well tissue culture plate, and cultured overnight in a tissue culture incubator at 37° C.
# (§4) On day 2, compounds (in 100% DMSO) were serially diluted into DMEM containing 2% FBS, 0.5% DMSO, with appropriate supplements (media B). The final concentration of DMSO was maintained at 0.5% throughout the dilution series.
# (§5) Media on the replicon cell monolayer was removed, and then media B containing various concentrations of compounds was added. Media B without any compound was added to other wells as no compound controls.
# (§6) Cells were incubated with compound or 0.5% DMSO in media B for 48 hours in a tissue culture incubator at 37° C. At the end of the 48-hour incubation, the media was removed, and the replicon cell monolayer was washed once with PBS and stored at −80° C. prior to RNA extraction.
# (§7) Culture plates with treated replicon cell monolayers were thawed, and a fixed amount of another RNA virus, such as Bovine Viral Diarrhea Virus (BVDV) was added to cells in each well. RNA extraction reagents (such as reagents from RNeasy kits) were added to the cells immediately to avoid degradation of RNA. Total RNA was extracted according the instruction of manufacturer with modification to improve extraction efficiency and consistency. Finally, total cellular RNA, including HCV replicon RNA, was eluted and stored at −80° C. until further processing.
# (§8) A Taqman real-time RT-PCR quantification assay was set up with two sets of specific primers and probe. One was for HCV and the other was for BVDV. Total RNA extractants from treated HCV replicon cells was added to the PCR reactions for quantification of both HCV and BVDV RNA in the same PCR well. Experimental failure was flagged and rejected based on the level of BVDV RNA in each well. The level of HCV RNA in each well was calculated according to a standard curve run in the same PCR plate. The percentage of inhibition or decrease of HCV RNA level due to compound treatment was calculated using the DMSO or no compound control as 0% of inhibition. The cytotoxicity of the compounds was measured using a mitochondrial enzyme-based cell viability assay, CellTiter 96 AQueous One Solution Cell Proliferation Assay (Promega).
# (§9) Table 6 summary: Three HCV sub-genomic replicon stable cell lines, including the wild-type, and two mutants, A156T and A156V, were generated using the T7 RNA runoff transcripts from the corresponding high efficiency Con 1 replicon plasmids.
# [4] = system: A156V HCV replicon cells; assay: HCV replicon cell assay, 48-hour; format: cell-based, Hepatitis C virus
# Source text: as §1, §2, §3, §4, §5, §6, §7, §8, §9
# [5] = biological target: wild type HCV NS3 serine protease domain, genotype 1b (Hepatitis C virus genotype 1b, UniProt Q9WMX2); assay: biochemical
# [6] = system: series B (BILN 2061-resistant) replicon cells; assay: HCV replicon cell assay, 48-hour; format: cell-based; conditions: Hepatitis C virus
# [7] = system: wild-type HCV Con1 sub-genomic replicon cells; assay: HCV replicon cell assay, 48-hour; format: cell-based, Hepatitis C virus; conditions: Hepatitis C virus, 48-hour assay
# Method: as §2, §3
# On day 2, compounds (in 100% DMSO) were serially diluted into DMEM containing 2% FBS, 0.5% DMSO, with appropriate supplements (media B). […]
# A Taqman real-time RT-PCR quantification assay was set up with two sets of specific primers and probe. […] Total RNA extractants from treated HCV replicon cells was added to the PCR reactions for quantification of both HCV and BVDV RNA in the same PCR well. […] The level of HCV RNA in each well was calculated according to a standard curve run in the same PCR plate. The percentage of inhibition or decrease of HCV RNA level due to compound treatment was calculated using the DMSO or no compound control as 0% of inhibition. The cytotoxicity of the compounds was measured using a mitochondrial enzyme-based cell viability assay, CellTiter 96 AQueous One Solution Cell Proliferation Assay (Promega).
# [8] = system: series A (VX-950-resistant) replicon cells; assay: HCV replicon cell assay, 48-hour; format: cell-based, Hepatitis C virus; conditions: Hepatitis C virus; series A replicon cells at day 56
# [9] = system: D168V HCV replicon cells; assay: HCV replicon cell assay, 48-hour; format: cell-based, Hepatitis C virus; conditions: Hepatitis C virus, 48 h, read-out: Replicon IC50
# Source text: as §1, §2, §3, §4, §5, §6, §7, §8
# (§10) Four HCV sub-genomic replicon stable cell lines, including the wild type (wt), and three mutants, A156S, D168V and D168A, were generated using the T7 RNA runoff transcripts from the corresponding high efficiency Con1 replicon plasmids.
# [10] = system: D168A HCV replicon cells; assay: HCV replicon cell assay, 48-hour; format: cell-based, Hepatitis C virus; conditions: Hepatitis C virus, 48-hour assay
# Source text: as §1, §2, §3, §4, §5, §6, §7, §8, §10
# [11] = system: A156S HCV replicon cells; assay: HCV replicon cell assay, 48-hour; format: cell-based, Hepatitis C virus
# Source text: as §1, §2, §3, §4, §5, §6, §7, §8, §10
# [12] = biological target: T2, D168A mutant HCV NS3 serine protease domain (Hepatitis C virus genotype 1b, UniProt Q9WMX2, D1194A); assay: FRET enzyme assay, Ki; format: biochemical
# T2 construct: A DNA fragment encoding residues Ala^1-Ser^181 of the HCV NS3 protease (GenBank CAB46913); hexa-histidine (C); made in house; host or cells: E. coli BL21/DE3 pLysS
# [13] = biological target: T3, D168V mutant HCV NS3 serine protease domain (Hepatitis C virus genotype 1b, UniProt Q9WMX2, D1194V); assay: FRET enzyme assay, Ki; format: biochemical
# T3 construct: A DNA fragment encoding residues Ala^1-Ser^181 of the HCV NS3 protease (GenBank CAB46913); hexa-histidine (C); made in house; host or cells: E. coli BL21/DE3 pLysS
# [14] = system: series D (double-resistant) replicon cells; assay: HCV replicon cell assay, 48-hour; format: cell-based, Hepatitis C virus
# [15] = biological target: T4, A156S mutant HCV NS3 serine protease domain (Hepatitis C virus genotype 1b, UniProt Q9WMX2, A1182S); assay: FRET enzyme assay, Ki; format: biochemical
# T4 construct: A DNA fragment encoding residues Ala^1-Ser^181 of the HCV NS3 protease (GenBank CAB46913); hexa-histidine (C); made in house; host or cells: E. coli BL21/DE3 pLysS
# [16] = system: series C (double-resistant) replicon cells; assay: HCV replicon cell assay, 48-hour; format: cell-based, Hepatitis C virus; conditions: 30 μM VX-950, series C replicon cells at day 52
# [17] = biological target: T5, A156T mutant HCV NS3 serine protease domain (Hepatitis C virus genotype 1b, UniProt Q9WMX2, A1182T); assay: FRET enzyme assay, Ki; format: biochemical
# T5 construct: A DNA fragment encoding residues Ala^1-Ser^181 of the HCV NS3 protease (GenBank CAB46913); hexa-histidine (C); made in house; host or cells: E. coli
# [18] = Hepatitis C virus, 48-hour assay
structure (smiles),measurement,setting,value
CCC[C@H](NC(=O)C1[C@H]2CCC[C@H]2CN1C(=O)[C@@H](NC(=O)[C@@H](NC(=O)c1cnccn1)C1CCCCC1)C(C)(C)C)C(=O)C(=O)NC1CC1 (some centres unmarked) [VX-950],Ki,[1],33000 nM
same,IC50,[2],402 nM
same,IC50,"[2]; Hepatitis C virus, 48 h",400 nM
same,decrease in sensitivity conferred by the mutation,[3],at least 75 fold
same,IC50,[3]; [18],> 30000 nM
same,reduction of HCV replicon RNA,[3]; up to 30 μM VX-950,No significant reduction
same,decrease in sensitivity conferred by the mutation,[4],at least 75 fold
same,IC50,[4]; [18],> 30000 nM
same,reduction of HCV replicon RNA,[4]; up to 30 μM VX-950,No significant reduction
same,Ki,[5],100 nM
same,IC50,[6],~300 nM
same,IC50,[7],354 nM
same,IC50,[8],8100 to 12000 nM
same,IC50,[9],163 nM
same,IC50,[10],193 nM
same,IC50,[11]; Hepatitis C virus,4650 nM
same,IC50,"[11]; Hepatitis C virus, 48 h, 48-hour assay, read-out: Replicon IC50",4650 nM
same,IC50,"[11]; read-out: Replicon IC50, 48-hour assay",5090 nM
same,Ki,[12],150 nM
same,Ki,[13],43 nM
same,reduction of HCV RNA,"[14]; 30 μM VX-950, series D replicon cells at day 52",≤ 50%
same,IC50 higher than against the series B replicon cells,[14]; series D replicon cells at day 52,more than 100 fold
same,Ki,[15],2900 nM
same,Ki higher than against the wild type protease,[15],29 fold
same,reduction of HCV RNA,[16],≤ 50%
same,Ki,[17],9900 nM
